The record followed here is patent US8871753B2, “Macrocyclic compounds and their use as kinase inhibitors” (Incyte Corporation, priority 2008, dated 2014).

In general, IC50 refers to the concentration that gives 50% inhibition.

Structures can show the parent of a compound that is named as a salt.

Type in all cases: biochemical
The target of test [1] is T1, Recombinant Human Anaplastic Lymphoma Kinase (Homo sapiens, UniProt Q9UM73).
T1 construct: purchased Invitrogen, Carlsbad, Calif
The experiment in a line: ALK HTRF kinase assay. The settings on record: compound at 500 nM or 1 mM; 90 μM ATP. The procedure, abridged: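 Biotinylated peptide substrate, recombinant human ALK; detection via europium-chelate antibody to phosphotyrosine paired with streptavidin-APC. Potency expressed as IC50 from four-parameter curve fitting.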
For orientation: TR-FRET usually uses a lanthanide donor and a delayed reading to cut background.

The target in test [2] is T2, human JAK2 (a.a. 828-1132) (Homo sapiens, UniProt O60674).
T2 construct: JAK2 (a.a. 828-1132); His tag (N); made in house; host or cells: insect cells (baculovirus)
T2 sequence (O60674 828-1132): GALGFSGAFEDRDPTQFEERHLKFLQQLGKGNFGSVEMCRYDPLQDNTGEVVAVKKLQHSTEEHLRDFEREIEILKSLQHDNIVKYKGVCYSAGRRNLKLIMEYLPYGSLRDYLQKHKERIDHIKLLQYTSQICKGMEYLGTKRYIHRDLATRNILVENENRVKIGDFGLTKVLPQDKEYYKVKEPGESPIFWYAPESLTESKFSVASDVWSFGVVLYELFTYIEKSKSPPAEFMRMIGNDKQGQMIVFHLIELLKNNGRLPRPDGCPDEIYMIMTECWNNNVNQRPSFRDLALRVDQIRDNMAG
The test can be described thus: In vitro JAK kinase assay (HTRF, phosphorylation of a biotinylated peptide), JAK2. To be noted: method AA1 (30 μM ATP) or AA2 (1000 μM ATP), not stated per value. In a few lines:
(§1)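 Kinase activity was measured as phosphorylation of a biotinylated peptide, with ATP at 90 μM for JAK1, 30 μM for JAK2 and 3 μM for JAK3. Reactions ran 1 hr at room temperature, were stopped with EDTA plus SA-APC and Eu-Py20, and were read by HTRF after 40 minutes of antibody binding.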

The target in test [3] is T3, human JAK3 (a.a. 781-1124) (Homo sapiens, UniProt P52333).
T3 construct: JAK3 (a.a. 781-1124); His tag (N); made in house; host or cells: insect cells (baculovirus)
T3 sequence (P52333 781-1124): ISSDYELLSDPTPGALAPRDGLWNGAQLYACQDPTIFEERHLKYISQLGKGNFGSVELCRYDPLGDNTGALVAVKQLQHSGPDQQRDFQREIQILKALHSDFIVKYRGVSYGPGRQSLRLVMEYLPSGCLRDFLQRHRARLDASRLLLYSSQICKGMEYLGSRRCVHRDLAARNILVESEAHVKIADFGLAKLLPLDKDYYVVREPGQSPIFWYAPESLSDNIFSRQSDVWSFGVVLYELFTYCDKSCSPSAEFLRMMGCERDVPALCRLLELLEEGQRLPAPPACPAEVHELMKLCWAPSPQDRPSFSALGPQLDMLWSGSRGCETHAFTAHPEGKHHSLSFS
The experiment in a line: In vitro JAK kinase assay (HTRF, phosphorylation of a biotinylated peptide), JAK3. The settings on record: method AA1 (3 μM ATP) or AA2 (1000 μM ATP), not stated per value. In a few lines: as §1

Test [4] addresses T4, human JAK1 (a.a. 837-1142) (Homo sapiens, UniProt P23458).
T4 construct: human JAK1 (a.a. 837-1142); His tag (N); made in house; host or cells: insect cells (baculovirus)
The test can be described thus: In vitro JAK kinase assay (HTRF, phosphorylation of a biotinylated peptide), JAK1. To be noted: method AA1 (90 μM ATP) or AA2 (1000 μM ATP), not stated per value; read-out: JAK1 IC50. In a few lines:
as §1

The next test has as its target TYK2 (Homo sapiens, UniProt P29597). The test can be described thus: TYK2 kinase inhibition (Table A1).

T1 sequence (Q9UM73 19-1620): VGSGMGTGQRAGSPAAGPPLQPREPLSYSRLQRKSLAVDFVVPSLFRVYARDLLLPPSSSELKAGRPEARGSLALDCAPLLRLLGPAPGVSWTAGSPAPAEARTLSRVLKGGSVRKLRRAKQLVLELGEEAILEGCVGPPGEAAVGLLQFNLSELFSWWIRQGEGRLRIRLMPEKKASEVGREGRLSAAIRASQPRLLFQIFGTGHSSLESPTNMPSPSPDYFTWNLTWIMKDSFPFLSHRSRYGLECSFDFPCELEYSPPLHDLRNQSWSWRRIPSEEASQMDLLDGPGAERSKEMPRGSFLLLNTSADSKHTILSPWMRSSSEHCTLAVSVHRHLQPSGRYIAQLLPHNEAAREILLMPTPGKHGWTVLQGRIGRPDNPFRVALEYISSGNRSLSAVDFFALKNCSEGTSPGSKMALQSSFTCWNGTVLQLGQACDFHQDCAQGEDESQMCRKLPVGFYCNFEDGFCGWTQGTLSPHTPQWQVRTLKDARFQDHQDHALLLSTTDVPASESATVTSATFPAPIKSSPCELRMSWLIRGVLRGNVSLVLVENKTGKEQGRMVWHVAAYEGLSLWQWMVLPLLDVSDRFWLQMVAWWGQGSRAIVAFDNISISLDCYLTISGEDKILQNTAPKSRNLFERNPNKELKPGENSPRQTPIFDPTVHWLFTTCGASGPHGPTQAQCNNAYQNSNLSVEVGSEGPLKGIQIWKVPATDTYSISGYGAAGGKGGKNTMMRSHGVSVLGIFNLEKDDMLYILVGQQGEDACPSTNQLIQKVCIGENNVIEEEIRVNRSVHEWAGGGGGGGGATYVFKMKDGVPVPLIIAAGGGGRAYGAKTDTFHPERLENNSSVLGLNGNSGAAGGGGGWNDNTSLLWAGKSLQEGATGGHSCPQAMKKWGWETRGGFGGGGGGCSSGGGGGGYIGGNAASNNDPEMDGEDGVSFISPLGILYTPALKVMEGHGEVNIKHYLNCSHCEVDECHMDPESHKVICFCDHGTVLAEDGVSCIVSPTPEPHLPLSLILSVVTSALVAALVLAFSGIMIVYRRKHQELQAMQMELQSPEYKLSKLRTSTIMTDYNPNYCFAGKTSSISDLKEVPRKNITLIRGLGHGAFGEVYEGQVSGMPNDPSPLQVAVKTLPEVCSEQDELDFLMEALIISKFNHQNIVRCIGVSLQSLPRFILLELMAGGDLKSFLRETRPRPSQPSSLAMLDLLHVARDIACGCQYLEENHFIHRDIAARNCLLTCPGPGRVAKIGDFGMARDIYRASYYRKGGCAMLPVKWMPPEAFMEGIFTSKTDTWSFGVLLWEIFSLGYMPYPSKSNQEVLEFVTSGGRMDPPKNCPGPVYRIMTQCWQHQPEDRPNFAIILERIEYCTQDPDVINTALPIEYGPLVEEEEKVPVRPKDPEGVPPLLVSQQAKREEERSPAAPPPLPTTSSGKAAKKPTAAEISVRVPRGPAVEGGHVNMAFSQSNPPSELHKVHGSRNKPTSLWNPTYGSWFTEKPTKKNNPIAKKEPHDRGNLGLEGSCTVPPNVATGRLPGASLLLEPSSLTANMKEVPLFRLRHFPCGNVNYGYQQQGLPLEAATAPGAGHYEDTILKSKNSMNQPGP
T4 sequence (P23458 849-1154): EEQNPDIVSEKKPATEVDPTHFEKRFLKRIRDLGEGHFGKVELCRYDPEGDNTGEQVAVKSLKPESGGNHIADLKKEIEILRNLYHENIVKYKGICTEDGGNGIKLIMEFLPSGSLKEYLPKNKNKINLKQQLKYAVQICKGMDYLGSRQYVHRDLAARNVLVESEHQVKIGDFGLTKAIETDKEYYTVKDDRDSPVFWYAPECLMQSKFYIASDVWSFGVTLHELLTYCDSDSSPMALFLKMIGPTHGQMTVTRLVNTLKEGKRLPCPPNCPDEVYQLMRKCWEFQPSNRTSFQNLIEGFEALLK
Sequence of TYK2 (P29597 whole entry): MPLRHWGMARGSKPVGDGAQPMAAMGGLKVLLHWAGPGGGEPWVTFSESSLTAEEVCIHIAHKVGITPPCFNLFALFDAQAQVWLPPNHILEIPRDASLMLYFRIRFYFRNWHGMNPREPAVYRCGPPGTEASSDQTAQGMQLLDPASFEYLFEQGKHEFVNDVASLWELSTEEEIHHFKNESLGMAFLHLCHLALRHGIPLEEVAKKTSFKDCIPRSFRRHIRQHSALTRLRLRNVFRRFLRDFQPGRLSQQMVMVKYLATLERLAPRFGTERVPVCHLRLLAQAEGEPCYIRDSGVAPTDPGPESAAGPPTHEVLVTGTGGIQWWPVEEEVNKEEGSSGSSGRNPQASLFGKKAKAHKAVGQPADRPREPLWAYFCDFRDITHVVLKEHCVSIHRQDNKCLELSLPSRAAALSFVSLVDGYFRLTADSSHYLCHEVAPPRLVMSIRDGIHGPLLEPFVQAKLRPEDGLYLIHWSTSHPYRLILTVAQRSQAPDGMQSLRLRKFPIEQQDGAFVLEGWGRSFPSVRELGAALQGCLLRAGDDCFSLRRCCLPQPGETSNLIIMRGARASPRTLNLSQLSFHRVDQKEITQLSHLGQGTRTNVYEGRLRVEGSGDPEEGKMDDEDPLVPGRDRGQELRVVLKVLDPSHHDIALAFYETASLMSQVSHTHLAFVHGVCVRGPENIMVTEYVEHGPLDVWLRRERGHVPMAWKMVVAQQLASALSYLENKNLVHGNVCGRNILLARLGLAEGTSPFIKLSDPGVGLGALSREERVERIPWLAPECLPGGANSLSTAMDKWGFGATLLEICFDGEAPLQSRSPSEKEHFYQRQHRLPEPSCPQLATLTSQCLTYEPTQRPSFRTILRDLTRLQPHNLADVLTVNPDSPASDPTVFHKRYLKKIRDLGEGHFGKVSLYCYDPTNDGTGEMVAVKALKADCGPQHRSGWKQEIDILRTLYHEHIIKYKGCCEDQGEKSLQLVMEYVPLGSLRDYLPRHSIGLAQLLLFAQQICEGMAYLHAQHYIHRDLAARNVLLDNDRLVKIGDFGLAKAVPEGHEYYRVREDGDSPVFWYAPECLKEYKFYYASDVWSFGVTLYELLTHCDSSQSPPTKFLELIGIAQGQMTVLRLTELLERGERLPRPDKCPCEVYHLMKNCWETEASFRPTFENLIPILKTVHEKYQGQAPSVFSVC

With `CN(C)S(=O)(=O)N1CCC(CC(=O)Nc2ccc3cc2CCc2cncc(c2)Nc2ncc(Cl)c(n2)N3)CC1` [Example A96, N-[6-Chloro-2,4,8,18,22-pentaazatetracyclo[14.3.1.1(3,7).1(9,13)]docosa-1(20),3(22),4,6,9(21),10,12,16,18-nonaen-12-yl]-2-{1-[(dimethylamino)sulfonyl]piperidin-4-yl}acetamide bis(trifluoroacetate)], in test [1], the “ALK % of inhibition at a concentration of 500 nM or 1 mM” value (“ALK % of inhibition” below) turned out to be 26%. In addition, the IC50 in test [2] was 0.0066 µM; in test [3] it was 0.08 µM; in test [4], 0.0045 µM; on TYK2 it was 0.011 µM.
With `CC(C)S(=O)(=O)N1CCC(CC(=O)Nc2ccc3cc2CCc2cncc(c2)Nc2ncc(Cl)c(n2)N3)CC1` [Example A97, N-[6-Chloro-2,4,8,18,22-pentaazatetracyclo[14.3.1.1(3,7).1(9,13)]docosa-1(20),3(22),4,6,9(21),10,12,16,18-nonaen-12-yl]-2-[1-(isopropylsulfonyl)piperidin-4-yl]acetamide bis(trifluoroacetate)], in test [1], the “ALK % of inhibition” value is reported as 31%. For the same compound, the IC50 in test [2] amounted to 0.0075 µM; in test [3], 0.034 µM; in test [4] it was 0.0039 µM; on TYK2, 0.011 µM.
In the case of `CCS(=O)(=O)N1CCC(CC(=O)Nc2ccc3cc2CCc2cncc(c2)Nc2ncc(Cl)c(n2)N3)CC1` [Example A98, N-[6-Chloro-2,4,8,18,22-pentaazatetracyclo[14.3.1.1(3,7).1(9,13)]docosa-1(20),3(22),4,6,9(21),10,12,16,18-nonaen-12-yl]-2-[1-(ethylsulfonyl)piperidin-4-yl]acetamide bis(trifluoroacetate)], the “ALK % of inhibition” value in test [1] was found to be 34%. Moreover, the IC50 in test [2] came to 0.0027 µM; in test [3], 0.055 µM; in test [4], 0.001 µM; on TYK2, 0.0053 µM.
For the compound `CC(C)NC(=O)N1CCC(CC(=O)Nc2ccc3cc2CCc2cncc(c2)Nc2ncc(Cl)c(n2)N3)CC1` [Example A99, 4-(2-{[6-Chloro-2,4,8,18,22-pentaazatetracyclo[14.3.1.1(3,7).1(9,13)]docosa-1(20),3(22),4,6,9(21),10,12,16,18-nonaen-12-yl]amino}-2-oxoethyl)-N-isopropylpiperidine-1-carboxamide bis(trifluoroacetate)], in test [1], the “ALK % of inhibition” value was 25%. The IC50 in test [2] came to 0.024 µM; in test [3] it was 0.133 µM; in test [4], 0.015 µM; on TYK2 it was 0.024 µM.
With `CNC(=O)N1CCC(CC(=O)Nc2ccc3cc2CCc2cncc(c2)Nc2ncc(Cl)c(n2)N3)CC1` [Example A100, 4-(2-{[6-Chloro-2,4,8,18,22-pentaazatetracyclo[14.3.1.1(3,7).1(9,13)]docosa-1(20),3(22),4,6,9(21),10,12,16,18-nonaen-12-yl]amino}-2-oxoethyl)-N-methylpiperidine-1-carboxamide bis(trifluoroacetate)], the “ALK % of inhibition” value in test [1] came to 28%. Besides, the IC50 in test [2] turned out to be 0.0058 µM; in test [3], 0.058 µM; in test [4], 0.0015 µM; against TYK2, 0.003 µM.
Take `Cc1cc(C(=O)N2CCC(CC(=O)Nc3ccc4cc3CCc3cncc(c3)Nc3ncc(Cl)c(n3)N4)CC2)no1` [Example A101, N-[6-Chloro-2,4,8,18,22-pentaazatetracyclo[14.3.1.1(3,7).1(9,13)]docosa-1(20),3(22),4,6,9(21),10,12,16,18-nonaen-12-yl]-2-{1-[(5-methylisoxazol-3-yl)carbonyl]piperidin-4-yl}acetamide bis(trifluoroacetate)]: the “ALK % of inhibition” value in test [1] worked out at 29%. Besides, the IC50 in test [2] came to 0.01 µM; in test [3], 0.128 µM; in test [4] it was 0.0005 µM; against TYK2, 0.0034 µM.
Take `O=C(CC1CCN(C(=O)c2cnccn2)CC1)Nc1ccc2cc1CCc1cncc(c1)Nc1ncc(Cl)c(n1)N2` [Example A102, N-[6-Chloro-2,4,8,18,22-pentaazatetracyclo[14.3.1.1(3,7).1(9,13)]docosa-1(20),3(22),4,6,9(21),10,12,16,18-nonaen-12-yl]-2-[1-(pyrazin-2-ylcarbonyl)piperidin-4-yl]acetamide tris(trifluoroacetate)]: in test [1], the “ALK % of inhibition” value is listed as 21%. The IC50 was determined as 0.02 µM in test [2], 0.17 µM in test [3], 0.01 µM in test [4] and 0.019 µM at TYK2.
Turning to `CC(C)C(=O)N1CCC(CC(=O)Nc2ccc3cc2CCc2cncc(c2)Nc2ncc(Cl)c(n2)N3)CC1` [Example A103, N-[6-Chloro-2,4,8,18,22-pentaazatetracyclo[14.3.1.1(3,7).1(9,13)]docosa-1(20),3(22),4,6,9(21),10,12,16,18-nonaen-12-yl]-2-(1-isobutyrylpiperidin-4-yl)acetamide bis(trifluoroacetate)], in test [1], the “ALK % of inhibition” value came out at 24%. Also, the IC50 in test [2] stood at 0.021 µM; in test [3], 0.156 µM; in test [4] it was 0.01 µM; on TYK2, 0.015 µM.
Take `CCC(=O)N1CCC(CC(=O)Nc2ccc3cc2CCc2cncc(c2)Nc2ncc(Cl)c(n2)N3)CC1` [Example A104, N-[6-Chloro-2,4,8,18,22-pentaazatetracyclo[14.3.1.1(3,7).1(9,13)]docosa-1(20),3(22),4,6,9(21),10,12,16,18-nonaen-12-yl]-2-(1-propionylpiperidin-4-yl)acetamide bis(trifluoroacetate)]: the “ALK % of inhibition” value in test [1] is on record as 26%. The IC50 in test [2] is 0.0083 µM; in test [3], 0.148 µM; in test [4] it was 0.081 µM; against TYK2, 0.0044 µM.
On to `O=C(CC1CCNC1)Nc1ccc2cc1CCc1cncc(c1)Nc1ncc(Cl)c(n1)N2` (stereo not drawn) [Example A105, N-[6-Chloro-2,4,8,18,22-pentaazatetracyclo[14.3.1.1(3,7).1(9,13)]docosa-1(20),3(22),4,6,9(21),10,12,16,18-nonaen-12-yl]-2-pyrrolidin-3-ylacetamide tris(trifluoroacetate)], for which the “ALK % of inhibition” value in test [1] worked out at 23%. In addition, the IC50 in test [2] worked out at 0.04 µM; in test [3], 0.112 µM; in test [4] it was 0.029 µM; on TYK2 it was 0.044 µM.
On to `C[C@H](O)C(=O)Nc1ccc2cc1CCc1cccc(c1)Nc1ncc(Cl)c(n1)N2` [Example A106, (2S)—N-[6-Chloro-2,4,8,22-tetraazatetracyclo[14.3.1.1(3,7).1(9,13)]docosa-1(20),3(22),4,6,9(21),10,12,16,18-nonaen-12-yl]-2-hydroxypropanamide trifluoroacetate], for which the “ALK % of inhibition” value in test [1] came out at 21%. In addition, the IC50 in test [2] was determined as 0.01 µM; in test [3], 0.0062 µM; in test [4], 0.018 µM; against TYK2, 0.022 µM.
In the same order, the values of `NCC(=O)Nc1ccc2cc1CCc1cccc(c1)Nc1ncc(Cl)c(n1)N2` [Example A107, 2-Amino-N-[6-chloro-2,4,8,22-tetraazatetracyclo[14.3.1.1(3,7).1(9,13)]docosa-1(20),3(22),4,6,9(21),10,12,16,18-nonaen-12-yl]acetamide bis(trifluoroacetate)] are 39%, 0.01 µM, 0.0082 µM, 0.004 µM and 0.0042 µM.
